Source: patent publication US12091601B2 (priority 2020, dated 2024)
Counter-ions that a name gives are not always drawn.

Tests used:
[1] = cited from earlier work
[2] = Inhibition and re-activation of HF: quartz dissolution; settings: by themselves
Protocol: HF was inhibited by the addition of monoethanolamine (MEA), until no quartz (SiO2) was dissolved. A molar ratio of 1 MEA to HF or greater is necessary to inhibit HF's ability to dissolve quartz, and a ratio of 1.1 will used in further testing to provide a reasonable safety margin.
The inhibited HF solution can regain its quartz dissolving potential through the addition of an acidic solution, such as HCl.
To evaluate the performance of mud acids created with acid compositions comprising HCl:MEA in ratios of 4.4:1; 6.3:1; and 11.3:1, inhibited HF mud acids were prepared using HCl and acid compositions comprising HCl:MEA in ratios of 4.4:1; and 11.3:1 with various amount of free HCl (6 to 12%).

SMILES	concentration above which precipitation occurs / solubility [1] [mg/mL]	quartz dissolved [2]
F[Si-2](F)(F)(F)(F)F.[Na+].[Na+] [Na2SiF6]	6.4	
Cl [HCl]		essentially no quartz
